Results taken from patent US12673039B2, “Methods of inducing autophagy using coumarin derivatives and related compounds” (Buck Institute for Research on Aging, priority 2019, dated 2026).

Legend:
C. elegans = test: Mitophagy and mitochondrial function in C. elegans; format: in vivo
Source text: FIGS. 13A-13B illustrate that coumarin 106 (“C1”, “AIC106”) promotes increased indices of mitophagy. FIG. 13A) Representative images and GFP quantification of mitochondrial content at day-5 adult worms (pges-1mtGFP; bottom) of mito::GFP reporter strains (GFP tagged to mitochondrial localizing signals) treated with C1 or DMSO control. FIG. 13B) Visualizing mitochondrial fission using mito::GFP (pmyo-3mtGFP) reporter strain. Representative GFP image shown in upper panel. Representative images (lower panel) showing mitochondrial fission after 48 hrs of C1 or control treatment (63× oil). Images converted to black & white format using NIH ImageJ software for quantification of fragmented mitochondria, denoted as white puncta here.
FIGS. 14A-14B illustrate that coumarin 106 (“C1”, “AIC106”) results in increases in mitochondrial function. FIG. 14A) Basal and maximal respiration measured in live worms in the Seahorse following addition of C1 (50, 200 μM). Values are reported as oxygen consumption rate (OCR, pmol/min/mg protein)+/− FCCP addition; *p<0.05; **p<0.01. FIG. 14B) Sensitivity to treatment for with increasing concentrations of the mitochondrial uncoupler FCCP in the absence and presence of C1 (20, 50 μM; 1 hr). Values are reported as % of live worms per plate, *p<0.01 versus FCCP alone.
FIG. 20, panels A-H: AIC106 treatment improves mitochondrial health. Panel A) Changes in mitochondrial membrane potential were determined by quantifying fluorescence intensity of individual TMRM stained wild type N2 worms post-24 hours treatment with AIC106 and DMSO-control. [N=3 independent experiments (mean±SD). ****p<0.0001, by unpaired t-test]. Panel B) TMRM stained wild type N2 worms were monitored by fluorescence microscopy. Panel C) Mitophagy flux upon AIC106 treatment was determined in DLM14 young adult worms (TOMM-7 tagged to a peptide linked dual-Fluorescent GFP) by quantifying relative fold changes in ratio of monomeric-fluorescent protein (mFP) to dual-fluorescent protein (dFP) compared to DMSO-control. Panel D) Ability of AIC106 to rescue mitochondrial toxin (FCCP) sensitivity was determined as percent survival of 24 hours treated AIC106 and DMSO-control wild type N2 worms. [N=3 independent experiments (mean±SD). ****p<0.0001, by two-way ANOVA with Sidak's multiple comparisons test]. Panel E) Ability of AIC106 to rescue enhanced mitochondrial toxin (FCCP, 20 μM) sensitivity in mitophagy deficient parkin/pdr-1 mutant was determined as percent survival of 24 hours treated AIC106 and DMSO-control pdr-1(tm598) and pdr-1(tm598); hlh-30(tm1978) mutant. [N=3 independent experiments (mean±SD). *p<0.05, by two-way ANOVA with Sidak's multiple comparisons test]. Panel F) Effect of AIC106 on mitochondrial biogenesis was determined by quantifying GFP fluorescence intensity in an individual SJ4143 worm (GFP targeted in mitochondria of intestinal cells) post-72 hours of treatment with AIC106 and DMSO-control. [N=3 independent experiments (mean±SD). ****p<0.0001, by unpaired t-test]. Panel G) SJ4143 worms were monitored by fluorescence microscopy. Panel H) Effects of AIC106 on basal (B) and maximum (M) mitochondrial respiration rate were determined by quantifying oxygen consumption rate (OCR) in wild type N2 and hlh-30(tm1978) mutant strain post-24 hours of treatment with AIC106 and DMSO-control. [N=3 independent experiments (mean±SD). *p<0.05, ***p<0.001 and ****p<0.0001, by one-way ANOVA with Tukey's multiple comparisons test].
FIG. 27, panels A-C: AIC106 induces mitophagy and increases lifespan. Panel A) Relative fold change in mRNA of key mitophagy genes including dct-1, pink-1 and pdr-1 was quantified by qRT-PCR after DMSO-control and AIC106 24 hours treatment in young adult N2 and hlh-30(tm1978) mutants. [N=3 independent experiments (mean±SD). **p<0.01 and ****p<0.0001, by two-way ANOVA with Sidak's multiple comparisons test]. […]

SH-SY5Y cells = test: Immunoblot of TFEB, cathepsin-D and SHP-1 in SH-SY5Y cells; format: cell-based, human; conditions: 24 hours
Procedure: FIG. 23, panels A-H: FXR modulation enhances HLH-30 expression in human neuronal SH-SY5Y cells. Panel A) Effects of AIC106 on human FXR activity was determined in a mammalian one-hybrid based kit assay by quantifying changes in the luciferase activity of FXR ligand (GW4064, GW) induced treatment. [N=3 independent experiments (mean±SD). ****p<0.0001, by one-way ANOVA with Tukey's multiple comparisons test]. Panel B) Protein expression of TFEB, cathepsin-D (CAT-D) and small heterodimer partner-1 (SHP-1) was determined by immunoblot in neuronal SH-SY5Y cells post-24 hours of treatment with AIC106 and DMSO-control. Panel C) AIC106 enhances autophagic flux in neuronal SH-SY5Y cells. Autophagic flux in DMSO-control and AIC106 treated neuronal cells was determined by quantifying levels of autophagosome specific LC3-II protein both in presence and absence of autophagy inhibitor bafliomycin A1 (Baf A, 10 nM). Panel D) Relative fold change in the band intensity of LC3-II protein, normalized to loading control actin. Values are relative to DMSO-control. [N=3 independent experiments (mean±SD). *p<0.05 and ****p<0.0001, by one-way ANOVA with Tukey's multiple comparisons test]. Panel E) Effects of AIC106 treatment for 72 hours on basal TAU and phosphorylated-TAU in differentiated human neuronal SH-SHY5Y and heterozygous TSC1(+/−) mutant SH-SY5Y neuronal cells were quantitated by immunoblotting following total protein extraction. Relative fold change in the band intensity compared to SH-SY5Y control treatment for (panel F) total TAU and (panel G) phosphorylated-TAU, normalized to loading control GAPDH. [N=3 independent experiments (mean±SD). *p<0.05 and **p<0.01, by one-way ANOVA with Sidak's multiple comparisons test]. Panel H) AIC106 treatment improves viability and health of differentiated SH-SY5Y-TSC1(+/−) neuronal cells. Images were taken post-96 hours after treatment of differentiated neuronal cells with AIC106.
FIG. 30, panels A-B: FXR modulation enhances HLH-30 expression in human neuronal SH-SY5Y cell. Panel A) TFEB expression in SH-SY5Y cells was determined by immunoblot against TFEB in protein lysates collected after 24 hours of treatment with FXR agonist GW4064 and DMSO control. Panel B) Phosphorylated-TAU levels in SH-SY5Y-P301L-TAU cells was determined by immunoblot against (Ser202, Thr205) in protein lysates collected after 24 hours of treatment with known FXR antagonist Z-gugglsterone (z-GG), DY268 and DMSO control.

Question: Which “mitophagy flux (mFP)” value (C. elegans; DLM14 worms (FIG. 20, panel C)) does the source give for `O=c1oc2c3c4c(cc2c2c1CCC2)CCCN4CCC3` [C1, 2,3,6,7,10,11-Hexahydro-1H,5H-cyclopenta(3,4)(1)benzopyrano(6,7,8-ij)quinolizin-12(9H)-one] here?
Answer: increased mFP expression

Question: What about the mitophagy (C. elegans; FIG. 13) of the same molecule?
Answer: elevated mitophagy

Question: And the mitochondrial health (C. elegans; FIG. 14)?
Answer: improvement in mitochondrial health

Question: What about the “mRNA of mitophagy specific genes” value (C. elegans; N2, hlh-30 dependent (FIG. 27, panel A)) of the same molecule?
Answer: elevated mRNA abundance of key mitophagy specific genes including dct-1 and pink-1

Question: What about the “mitochondrial membrane potential (TMRM fluorescence)” value (C. elegans; N2 worms, 24 hours) of the same molecule?
Answer: significant decrease in the MMP

Question: And the “mitochondrial content (GFP)” value (C. elegans; SJ4143 worms, 72 hours)?
Answer: increased mitochondrial content

Question: What about the “maximum respiration capacity (OCR)” value (C. elegans; hlh-30 mutant worms) of the same molecule?
Answer: failed to show any increase in the maximum respiration capacity

Question: And the “maximum respiration capacity (OCR)” value (C. elegans; wild type N2, 24 hours)?
Answer: increase maximum respiration capacity

Question: What about the TFEB protein expression (SH-SY5Y cells) of the same molecule?
Answer: increased expression TFEB protein

Question: What about the “cathepsin D (CATD) protein expression” value (SH-SY5Y cells) of the same molecule?
Answer: enhanced protein expression of TFEB target gene cathepsin D

Question: What about the “small heterodimer partner-1 (SHP-1) expression” value (SH-SY5Y cells) of the same molecule?
Answer: reduced expression of ligand-bound FXR target, small heterodimer partner-1
